In assay [1] the target is T1, CaM (Bos taurus, UniProt P62157).
T1 construct: made in house; host or cells: E. coli BL21 (DE3)
The assay is described as follows: Pull-down assay with immobilized protein and LSM libraries. The class given is binding, bovine. The note with it: H14 library; 1:2 stoichiometry assumed; read-out: Surface mapping KD (apparent). The gist of the method:
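His-tagged protein immobilized on Co-NTA resin, equilibrated 30 min at room temperature with LSM sublibraries (64 members, […]), equimolar protein to total probe. CaM buffer: 20 mM HEPES pH 7.4, 150 mM NaCl, 5 mM CaCl2. Bound fractions from HPLC-MS loss of unbound probe versus protein-free resin control; Kd derived.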

In assay [2] the target is T2, Gal-1 (Homo sapiens, UniProt P09382).
T2 construct: made in house; host or cells: E. coli BL21(DE3)
T2 sequence (P09382 whole entry): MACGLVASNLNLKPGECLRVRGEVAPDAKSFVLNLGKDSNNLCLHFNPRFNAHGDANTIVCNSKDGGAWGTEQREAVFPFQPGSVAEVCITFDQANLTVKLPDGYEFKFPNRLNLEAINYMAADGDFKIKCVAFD
The description is as above. The assay is classed as binding. The settings on record: H14 library; 1:1 binding assumed; read-out: Surface mapping KD (apparent). The method, boiled down: (§1)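 His-tagged protein immobilized on Co-NTA resin (64 µM) in 20 mM HEPES pH 7.4, 150 mM NaCl, equilibrated 30 min at room temperature with foldamer LSM sublibraries at equimolar total concentration. Unbound fractions quantified by HPLC-MS versus protein-free resin control; apparent KD assumes 1:1 binding.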

Assay [3] deals with T3, S100A4 (Homo sapiens, UniProt P26447).
T3 construct: made in house; host or cells: Escherichia coli BL21(DE3)
T3 sequence (P26447 whole entry): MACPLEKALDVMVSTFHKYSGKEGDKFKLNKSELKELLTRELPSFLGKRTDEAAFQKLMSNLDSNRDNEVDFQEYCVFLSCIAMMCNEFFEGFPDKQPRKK
Described as above. The settings on record: for Kd: H14 library, 1:1 binding assumed, read-out: Surface mapping KD (apparent); for Affinity class of probe (high, medium, low) in pull-down: H14 probes selected for validation. The assay is classed as binding. The method, boiled down: (§2)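 Buffers were HEPES pH 7.4 with 150 mM NaCl, plus 1 mM TCEP and 1 mM CaCl2 (50 mM HEPES) for S100A4 and S100B, 1 mM TCEP for Gal-1, and no additive for RecQ-WH. Immobilized protein at 64 µM was equilibrated 30 min with the LSM sublibrary, and unbound probes were measured by LC-MS.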

Assay [4] has as its target T4, S100B (Homo sapiens, UniProt P04271).
T4 construct: made in house; host or cells: Escherichia coli BL21(DE3)
T4 sequence (P04271 1-92): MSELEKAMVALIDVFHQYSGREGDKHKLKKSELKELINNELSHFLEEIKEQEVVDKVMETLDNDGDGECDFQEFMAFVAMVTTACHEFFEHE
The description is as above. The assay is classed as binding. The note with it: for Kd: H14 library, 1:1 binding assumed, read-out: Surface mapping KD (apparent); for Affinity class of probe (high, medium, low) in pull-down: H14 probes selected for validation. The gist of the method:
as §2

Assay [5] has as its target T5, RecQ-WH (Escherichia coli, UniProt P15043).
T5 construct: coding for residues 408– 523 of E. coli RecQ; made in house; host or cells: E. coli BL21(DE3)
The description is as above. The arrangement: species or system E. coli. The note with it: H14 library; 1:1 binding assumed; read-out: Surface mapping KD (apparent). The method, boiled down:
as §1

The target of assay [6] is T1, CaM. The assay is described as follows: Competition pull-down with native ligand TRPV1-Ct15. The class given is binding, bovine. The note with it: H14 library; competitor peptide 200 µM; read-out: Surface mapping KD (apparent), competition.
For assay [7], the target named is T3, S100A4. The assay is described as follows: Competition pull-down with native ligand NMIIA (1893–1923). The class given is binding. The note with it: H14 library; competitor peptide 200 µM; read-out: Surface mapping KD (apparent), competition.
Assay [8] concerns the target T4, S100B. The assay is described as follows: Competition pull-down with native ligand RSK1 (689–735). The settings on record: H14 library; competitor peptide 200 µM; read-out: Surface mapping KD (apparent), competition. The class given is binding.
Assay [9] has as its target T5, RecQ-WH. The assay is described as follows: Competition pull-down with native ligand SSB-Ct8. The class given is binding, E. coli. The note with it: H14 library; competitor peptide 200 µM; read-out: Surface mapping KD (apparent), competition.
Assay [10] deals with T2, Gal-1. The assay is described as follows: Competition pull-down with lactose. The class given is binding. The note with it: H14 library; lactose 10 mM; read-out: Surface mapping KD (apparent), competition. The method, boiled down: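 His6-tagged proteins immobilized on Co-NTA resin at 64 µM final with 64-member LSM foldamer sublibraries (1 M each, as printed) in pH 7.4 HEPES/NaCl buffers (Ca2+/TCEP per target), 30 min RT; competitor peptides 200 µM final, lactose 10 mM for Gal-1. Bound fractions from LC-MS loss vs protein-free resin; KD assuming 1:1 binding.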

T5 sequence (P15043 408-523): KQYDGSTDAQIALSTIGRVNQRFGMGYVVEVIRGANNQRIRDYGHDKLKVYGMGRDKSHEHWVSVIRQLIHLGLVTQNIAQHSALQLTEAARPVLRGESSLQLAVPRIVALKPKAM

With `CC[C@H](C)[C@@H](CC(=O)N[C@H]1CCCC[C@@H]1C(=O)N[C@H]1CCCC[C@@H]1C(=O)N[C@H](CC(=O)N[C@H]1CCCC[C@@H]1C(N)=O)Cc1ccccc1)NC(=O)[C@H]1CCCC[C@@H]1N` [H14 IF], the Kd in assay [1] came out at 9 µM; in assay [2] it was 33 µM; in [3] it was 2 µM; in assay [4], 9 µM; in assay [5] it was 186 µM; in assay [6], 102 µM. The Kd amounted to 162 µM in assay [7], 64 µM in [8], 439 µM in assay [9] and 53 µM in [10]. The “Affinity class of probe (high, medium, low) in pull-down” value (“Affinity class of probe” for short) in assay [3] and in [4] was “high” throughout.

In the case of `CC(C)C[C@@H](CC(=O)N[C@H]1CCCC[C@@H]1C(N)=O)NC(=O)[C@H]1CCCC[C@@H]1NC(=O)[C@H]1CCCC[C@@H]1NC(=O)C[C@H](CC(C)C)NC(=O)[C@H]1CCCC[C@@H]1N` [H14 LL], the Kd in [1] was 16 µM; in assay [2], 17 µM; in assay [3], 1 µM; in assay [4], 28 µM; in assay [5] it was 206 µM; in [6], 276 µM. In addition, the Kd in assay [7] worked out at 117 µM; in assay [8], 147 µM; in assay [9] it was 253 µM; in assay [10], 32 µM.

Take `NC(=O)[C@H]1CCCC[C@@H]1NC(=O)C[C@H](Cc1c[nH]c2ccccc12)NC(=O)[C@H]1CCCC[C@@H]1NC(=O)[C@H]1CCCC[C@@H]1NC(=O)C[C@H](Cc1ccc(O)cc1)NC(=O)[C@H]1CCCC[C@@H]1N` [H14 YW]: the Kd in assay [1] was found to be 2 µM; in [2] it was 115 µM; in [3] it was 25 µM; in assay [4], 42 µM; in [5], 46 µM; in assay [6] it was 404 µM. Moreover, the Kd amounted to 391 µM in assay [7], 38 µM in assay [8], 164 µM in assay [9] and 112 µM in assay [10].

As to `CC[C@H](C)[C@@H](CC(=O)N[C@H]1CCCC[C@@H]1C(N)=O)NC(=O)[C@H]1CCCC[C@@H]1NC(=O)[C@H]1CCCC[C@@H]1NC(=O)C[C@@H](NC(=O)[C@H]1CCCC[C@@H]1N)[C@@H](C)CC` [H14 II], the Kd in assay [1] stood at 9 µM; in [2], 24 µM; in assay [3], 2 µM; in assay [4], 19 µM; in [5] it was 160 µM; in assay [6] it was 280 µM. Moreover, the Kd is 101 µM in [7], 147 µM in [8], 364 µM in assay [9] and 50 µM in assay [10].

As to `CC(C)C[C@@H](CC(=O)N[C@H]1CCCC[C@@H]1C(N)=O)NC(=O)[C@H]1CCCC[C@@H]1NC(=O)[C@H]1CCCC[C@@H]1NC(=O)C[C@H](Cc1c[nH]c2ccccc12)NC(=O)[C@H]1CCCC[C@@H]1N` [H14 WL], the Kd amounted to 1 µM in [1]; 71 µM in [2]; 10 µM in assay [3]; 12 µM in assay [4]; 68 µM in assay [5]; 55 µM in assay [6]. Besides, the Kd came to 255 µM in [7], 123 µM in assay [8], 142 µM in assay [9] and 105 µM in [10]. In addition, the “Affinity class of probe” value in [3] and in [4] was “high” each time.

`CC(C)C[C@@H](CC(=O)N[C@H]1CCCC[C@@H]1C(=O)N[C@H]1CCCC[C@@H]1C(=O)N[C@H](CC(=O)N[C@H]1CCCC[C@@H]1C(N)=O)Cc1ccccc1)NC(=O)[C@H]1CCCC[C@@H]1N` [H14 LF]: the Kd came to 11 µM in assay [1]; 25 µM in assay [2]; 3 µM in assay [3]; 11 µM in assay [4]; 186 µM in [5]; 162 µM in assay [6]. The Kd in assay [7] was 140 µM; in [8] it was 71 µM; in assay [9], 439 µM; in assay [10], 43 µM.

Turning to `NC(=O)[C@H]1CCCC[C@@H]1NC(=O)C[C@H](Cc1ccc(O)cc1)NC(=O)[C@H]1CCCC[C@@H]1NC(=O)[C@H]1CCCC[C@@H]1NC(=O)C[C@H](Cc1c[nH]c2ccccc12)NC(=O)[C@H]1CCCC[C@@H]1N` [H14 WY], the Kd in assay [1] amounted to 2 µM; in [2], 145 µM; in assay [3] it was 35 µM; in assay [4], 66 µM; in assay [5], 50 µM; in assay [6], 119 µM. Moreover, the Kd came to 367 µM in assay [7], 104 µM in assay [8], 193 µM in assay [9] and 222 µM in assay [10].

In the case of `NC(=O)[C@H]1CCCC[C@@H]1NC(=O)C[C@H](Cc1c[nH]c2ccccc12)NC(=O)[C@H]1CCCC[C@@H]1NC(=O)[C@H]1CCCC[C@@H]1NC(=O)C[C@H](Cc1c[nH]c2ccccc12)NC(=O)[C@H]1CCCC[C@@H]1N` [H14 WW], the Kd came out at 1.2 µM in [1]; 30 µM in assay [2]; 23 µM in assay [3]; 19 µM in assay [4]; 40 µM in [5]; 35 µM in [6]. Further, the Kd in assay [7] worked out at 462 µM; in assay [8], 138 µM; in assay [9], 84 µM; in [10], 51 µM. The “Affinity class of probe” value in [3] is recorded as “medium”; in [4], “high”.

For the compound `CC(C)C[C@@H](CC(=O)N[C@H]1CCCC[C@@H]1C(N)=O)NC(=O)[C@H]1CCCC[C@@H]1NC(=O)[C@H]1CCCC[C@@H]1NC(=O)C[C@H](Cc1ccccc1)NC(=O)[C@H]1CCCC[C@@H]1N` [H14 FL], the Kd in assay [1] was 0.6 µM; in [2], 102 µM; in assay [3] it was 9 µM; in assay [4] it was 21 µM; in assay [5], 79 µM; in assay [6], 121 µM. Besides, the Kd in assay [7] worked out at 280 µM; in [8], 202 µM; in assay [9], 266 µM; in [10], 164 µM.

As to `NC(=O)[C@H]1CCCC[C@@H]1NC(=O)C[C@H](Cc1c[nH]c2ccccc12)NC(=O)[C@H]1CCCC[C@@H]1NC(=O)[C@H]1CCCC[C@@H]1NC(=O)C[C@H](Cc1ccccc1)NC(=O)[C@H]1CCCC[C@@H]1N` [H14 FW], the Kd came out at 0.7 µM in [1]; 81 µM in assay [2]; 24 µM in assay [3]; 27 µM in assay [4]; 63 µM in [5]; 118 µM in assay [6]. The Kd came to 440 µM in assay [7], 177 µM in assay [8], 153 µM in assay [9] and 122 µM in assay [10].

With `CC[C@H](C)[C@@H](CC(=O)N[C@H]1CCCC[C@@H]1C(=O)N[C@H]1CCCC[C@@H]1C(=O)N[C@H](CC(=O)N[C@H]1CCCC[C@@H]1C(N)=O)CC(C)C)NC(=O)[C@H]1CCCC[C@@H]1N` [H14 IL], the Kd is 9 µM in assay [1]; 24 µM in [2]; 2 µM in [3]; 19 µM in [4]; 206 µM in [5]; 276 µM in assay [6]. The Kd was 101 µM in assay [7], 147 µM in assay [8], 266 µM in assay [9] and 50 µM in [10]. The “Affinity class of probe” value in [3] and in assay [4] was “high” throughout.

Consider `CC[C@H](C)[C@@H](CC(=O)N[C@H]1CCCC[C@@H]1C(N)=O)NC(=O)[C@H]1CCCC[C@@H]1NC(=O)[C@H]1CCCC[C@@H]1NC(=O)C[C@H](Cc1c[nH]c2ccccc12)NC(=O)[C@H]1CCCC[C@@H]1N` [H14 WI], for which the Kd in [1] stood at 1 µM; in [2], 71 µM; in [3], 10 µM; in [4], 12 µM; in assay [5], 68 µM; in [6], 55 µM. The Kd in assay [7] was 255 µM; in assay [8], 123 µM; in assay [9], 142 µM; in assay [10], 105 µM.
